Test results taken from patent US8178506B2, “Oligomeric compounds and compositions for use in modulation of small non-coding RNAs” (Regulus Therapeutics Inc., priority 2003, dated 2012).
In the oligonucleotide strings, read from the 5' end, every base follows the letter of its sugar. An asterisk marks phosphorothioate; unmarked linkages are phosphodiester. Other units and linkages are bracketed, terminal groups are in braces. A string of capitals states the bases alone. e = 2'-O-(2-methoxyethyl) (MOE); [5mC] = 5-methylcytosine; d = 2'-deoxy (DNA)

Key:
mir-15a miRNA = experiment: pGL3-mir-15a sensor luciferase assay in HeLa cells; type: cell-based, human; details: pGL3-mir-15a sensor-expressing HeLa cells
Description: In order to assess the ability of miRNAs to bind predicted miRNA binding sites and regulate the expression of the luciferase reporter, in some embodiments, expression systems based on the pGL3-Control (Promega Corp., Madison Wis.) reporter vector and comprising either a mir-15a, mir-21, or a mir-23b miRNA binding site were developed and used in transient transfections of HeLa cells to determine whether the endogenous mir-15a, mir-21, or mir-23b miRNAs, respectively, could repress luciferase reporter gene expression.
The pGL3-mir-15a sensor plasmid was created by cloning the sequence ([…]; SEQ ID NO: 369), complementary to the mir-15a miRNA, into the Xba site of the pGL3-Control plasmid, placing the potential miRNA-binding site in the 3′UTR of the luciferase reporter. This reporter plasmid was used to transfect HeLa cells and it was observed that the endogenous mir-15a miRNA was able to inhibit luciferase expression from the pGL3-mir-15a sensor plasmid. Thus, to further evaluate the ability of the mir-15a miRNA to bind this target site encoded by the pGL3-mir-15a sensor plasmid, and to assess the ability of oligomeric compounds to interfere with mir-15a-mediated silencing, pGL3-mir-15a sensor-expressing HeLa cells were treated with varying concentrations (3-, 10- or 30 nM) of the following oligomeric compounds: ISIS Number 327951 (SEQ ID NO: 369) is a uniform 2′-MOE compound targeting the mature mir-15a-1 miRNA. ISIS Numbers 356213 (SEQ ID NO: 878), 356215 (SEQ ID NO: 879), 356216 (SEQ ID NO: 880), 356218 (SEQ ID NO: 881), 356221 (SEQ ID NO: 882), 356227 (SEQ ID NO: 883) and 356229 (SEQ ID NO: 884) are phosphorothioate, uniform 2′-MOE oligomeric compounds designed and synthesized to target the entire length of the mir-15a pri-miRNA molecule (described in detail in Example 28, below). […] The data presented in Table 42 are the average of three trials and are presented as percent untreated control (luciferase plasmid only, not treated with oligomeric compound) luciferase expression, normalized to pRL-CMV levels.

T47Dp53 cells = experiment: Cell cycle assay in T47Dp53 cells; type: cell-based, human; details: 150 nM, 48 hours, relative to untreated control

Row | Substance | Relative luciferase activity (mir-15a miRNA; 3 nM) | Relative luciferase activity (mir-15a miRNA; 10 nM) | Relative luciferase activity (mir-15a miRNA; 30 nM) | % cells in cell cycle phase G1 (T47Dp53 cells) [%] | % cells in cell cycle phase G2/M (T47Dp53 cells) [%] | % cells in cell cycle phase S (T47Dp53 cells) [%] | % cells in cell cycle phase aneuploid (T47Dp53 cells) [%] | % cells in cell cycle phase subG1 (T47Dp53 cells) [%]
1 | 327901 (antisense eT*eG*eA*eG*e[5mC]*eT*eA*e[5mC]*eA*eG*eT*eG*e[5mC]*eT*eT*e[5mC]*eA*eT*e[5mC]*eT*e[5mC]*eA) [compound 327901] | 83.6 | 96.6 | 88.2 |  |  |  |  | 
2 | 327902 (antisense eG*eG*e[5mC]*eT*eG*eT*e[5mC]*eA*eA*eT*eT*e[5mC]*eA*eT*eA*eG*eG*eT*e[5mC]*eA*eG) [compound 327902] |  |  |  | 100 | 102 | 98 | 97 | 155
3 | 327905 (antisense e[5mC]*eA*eG*eA*e[5mC]*eT*e[5mC]*e[5mC]*eG*eG*eT*eG*eG*eA*eA*eT*eG*eA*eA*eG*eG*eA) [compound 327905] |  |  |  | 112 | 104 | 80 | 103 | 109
4 | 327951 (antisense e[5mC]*eA*e[5mC]*eA*eA*eA*e[5mC]*e[5mC]*eA*eT*eT*eA*eT*eG*eT*eG*e[5mC]*eT*eG*e[5mC]*eT*eA) [compound 327951] | 151.0 | 207.6 | 137.1 |  |  |  |  | 
5 | 328759 (antisense eG*eA*eG*eG*eG*dA*dT*dT*dG*dT*dA*dT*dG*dA*dA*e[5mC]*eA*eT*e[5mC]*eT) [compound 328759] |  |  |  | 99 | 108 | 93 | 109 | 423
6 | 342673 (antisense eA*eG*eA*e[5mC]*eT*eA*eG*e[5mC]*eG*eG*eT*eA*eT*e[5mC]*eT*eT*eT*eA*eT*e[5mC]*e[5mC]*e[5mC]) [compound 342673] | 104.5 | 82.6 | 85.7 |  |  |  |  | 
